Two molecules from ChEMBL document CHEMBL1130665, “Synthesis and biological evaluation of a water soluble phosphate prodrug of 3-aminopyridine-2-carboxaldehyde thiosemicarbazone (3-AP)” (Bioorg Med Chem Lett, 1998) can be followed below.

For one data set, the species on record is Canis familiaris. The experiment in a line: Compound was evaluated for area under the curve in dog blood. Format: ADME, organism-based, Canis lupus familiaris. The settings on record: in vivo.
In data set [1] the test system is M109. The experiment in a line: In vivo antitumor activity evaluated against M-109 murine lung carcinoma cells in BALB/c mice administered intraperitoneally at a dose of 10 mg/kg. Format: functional, Mus musculus. The settings on record: route intraperitoneal.
Data set [2] is described as follows: Compound was evaluated for plasma clearance. The settings on record: dog. Format: ADME, organism-based, Canis lupus familiaris.
For data set [3], the system named is M109. The experiment in a line: In vivo antitumor activity evaluated against M-109 murine lung carcinoma cells in BALB/c mice administered intraperitoneally at a dose of 4.5 mg/kg. Format: functional, Mus musculus. The settings on record: route intraperitoneal.

Take `N/C(S)=N/N=C/c1ncccc1NC(=O)OCc1ccc(OP(=O)([O-])[O-])cc1.[Na+].[Na+]`: the AUC in the data set listed under Canis familiaris was 74.04 mg/min/L. In addition, the Tumor volume reduction in the data set on M109 [1] was determined as 46%. The clearance (in general, the volume of plasma or blood freed of the substance per unit of time) in data set [2] is 43.8 mL/min/kg.

Regarding `NC(=S)N/N=C/c1ncccc1N` [TRIAPINE], the AUC in the data set filed under Canis familiaris came to 71.59 mg/min/L. Further, the Tumor volume reduction in the data set with M109 [3] was found to be 30%. The molecule also showed a clearance in data set [2] of 40.6 mL/min/kg.
